In patent US20100029689A1, “PHOSPHODIESTERASE 4 INHIBITORS” (MEMORY PHARMACEUTICALS CORPORATION, priority 2008, published 2010):

Assays:
hPDE-4D6 = target: T1, hPDE-4D6 (Homo sapiens, UniProt Q08499); experiment: In vitro measurement of type 4 phosphodiesterase inhibition activity (hPDE-4D6, [3H]cAMP/alumina column assay); type: biochemical; conditions: recombinant hPDE-4D6 from Sf9 cell lysate, 3 uM cAMP, 12 min, room temperature; read-out: PDE4D6 IC50
T1 construct: made in house; host or cells: Sf9 insect cells (baculovirus)
Protocol: Human PDE4 was obtained from baculovirus-infected Sf9 cells that expressed the recombinant enzyme. The cDNA encoding hPDE-4D6 was subcloned into a baculovirus vector.
Insect cells (Sf9) were infected with the baculovirus and cells were cultured until protein was expressed. The baculovirus-infected cells were lysed and the lysate was used as source of hPDE-4D6 enzyme. The enzyme was partially purified using a DEAE ion exchange chromatography. This procedure can be repeated using cDNA encoding other PDE-4 enzymes.
Type 4 phosphodiesterases convert cyclic adenosine monophosphate (cAMP) to 5′-adenosine monophosphate (5′-AMP). Nucleotidase converts 5′-AMP to adenosine. Therefore the combined activity of PDE4 and nucleotidase converts cAMP to adenosine. Adenosine is readily separated from cAMP by neutral alumina columns. Phosphodiesterase inhibitors block the conversion of cAMP to adenosine in this assay; consequently, PDE4 inhibitors cause a decrease in adenosine.
Cell lysates (40 ul) expressing hPDE-4D6 were combined with 50 ul of assay mix and 10 μl of inhibitors and incubated for 12 min at room temperature. Final concentrations of assay components were: 0.4 ug enzyme, 10 mM Tris-HCl (pH 7.5), 1 mM MgCl2, 3 uM cAMP, 0.002 U 5′-nucleotidase, and 3×10^4 cpm of [3H]cAMP. The reaction was stopped by adding 100 μl of boiling 5mN HCl. An aliquot of 75 μl of reaction mixture was transferred from each well to alumina columns (Multiplate; Millipore). Labeled adenosine was eluted into an OptiPlate by spinning at 2000 rpm for 2 min; 150 μl per well of scintillation fluid was added to the OptiPlate. The plate was sealed, shaken for about 30 min, and cpm of [^3H]adenosine was determined using a Wallac Triflux®.
All test compounds are dissolved in 100% DMSO and diluted into the assay such that the final concentration of DMSO is 0.1%.
A decrease in adenosine concentration is indicative of inhibition of PDE activity. […] Nonlinear regression software (Assay Explorer@) was used to estimate pIC50 values.

rats [1] = experiment: Radial arm maze task in rats, in vivo test for learning and memory; parameters: species or system rat; conditions: male Sprague-Dawley rats, 0.1 mg/kg, i.p., compared to control (p<0.01)
Protocol: The test was performed as previously described (Zhang, H.-T., Crissman, A. M., Dorairaj, N. R., Chandler, L. J., and O'Donnell, J. M., Neuropsychopharmacology, 2000, 23, 198-204.). Five days after initial housing, rats (male Sprague-Dawley (Harlan) weighing 250 to 350 g) were placed in the eight-arm radial maze (each arm was 60×10×12 cm high; the maze was elevated 70 cm above the floor) for acclimation for two days. Rats were then placed individually in the center of the maze for 5 minutes with food pellets placed close to the food wells, and then, the next day, in the wells at the end of the arms; 2 sessions a day were conducted. Next, four randomly selected arms were then baited with one pellet of food each. The rat was restricted to the center platform (26 cm in diameter) for 15 seconds and then allowed to move freely throughout the maze until it collected all pellets of food or 10 minutes passed, whichever came first. Four parameters were recorded: 1) working memory errors, i.e., entries into baited arms that had already been visited during the same trial; 2) reference memory errors, i.e., entries into unbaited arms; 3) total arm entries; and 4) the test duration (seconds), i.e., the time spent in the collection of all the pellets in the maze. […]
(§1) All data were analyzed by analyses of variance (ANOVA); individual comparisons were made using Kewman-Keuls tests. […]

rats [2] = experiment: Passive avoidance in rats, in vivo test for learning and memory; parameters: species or system rat; conditions: male Sprague-Dawley rats, 0.1 mg/kg, 24 hours after electric shock, compared to vehicle (p<0.001)
Protocol: The test was performed as previously described (Zhang, H.-T., Crissman, A. M., Dorairaj, N. R., Chandler, L. J., and O'Donnell, J. M., Neuropsychopharmacology, 2000, 23, 198-204.). The apparatus (Model E10-16SC, Coulboum Instruments, Allentown, Pa.) consisted of a two-compartment chamber with an illuminated compartment connected to a darkened compartment by a guillotine door. The floor of the darkened compartment consisted of stainless steel rods through which an electric foot-shock could be delivered from a constant current source. All experimental groups were first habituated to the apparatus the day before the start of the experiment. During the training, the rat (Male Sprague-Dawley (Harlan) weighing 250 to 350 g) was placed in the illuminated compartment facing away from the closed guillotine door for 1 minute before the door was raised. The latency for entering the darkened compartment was recorded. After the rat entered the darkened compartment, the door was closed and a 0.5 mA electric shock was administered for 3 seconds. […] The latency for entering the darkened compartment was recorded for up to 180 seconds, at which time the trial was terminated.
as §1

T1 sequence (Q08499 1-518 isoform Q08499-8): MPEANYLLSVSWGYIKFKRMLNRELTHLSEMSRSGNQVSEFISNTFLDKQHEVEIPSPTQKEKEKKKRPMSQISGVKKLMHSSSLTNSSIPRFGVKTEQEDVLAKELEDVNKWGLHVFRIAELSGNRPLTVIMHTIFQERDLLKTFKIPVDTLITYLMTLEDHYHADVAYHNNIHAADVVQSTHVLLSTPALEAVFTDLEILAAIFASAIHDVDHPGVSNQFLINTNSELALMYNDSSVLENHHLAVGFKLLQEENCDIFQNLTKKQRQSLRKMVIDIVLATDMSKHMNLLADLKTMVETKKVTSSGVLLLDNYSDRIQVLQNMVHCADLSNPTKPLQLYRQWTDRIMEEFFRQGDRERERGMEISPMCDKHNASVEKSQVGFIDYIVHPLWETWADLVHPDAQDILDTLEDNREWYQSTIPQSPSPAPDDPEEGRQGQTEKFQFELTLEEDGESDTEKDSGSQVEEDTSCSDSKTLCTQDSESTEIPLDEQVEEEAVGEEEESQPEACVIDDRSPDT

Compound | melting point | IC50 (hPDE-4D6) | other results
COc1ccc(N(Cc2cncnc2)c2ccc(C(=O)O)cc2)cc1OC1CCC1 [Compound 193] | 174 to 177.9 °C |  | 
COc1ccc(N(Cc2cncnc2)c2ccc(C(=O)O)cc2)cc1OCC1CC1 [Compound 195] | 185.6 to 187.2 °C |  | 
CCOc1cc(N(Cc2cncnc2)c2ccc(C(=O)O)cc2)ccc1OC [Compound 196] | 190.9 to 191.9 °C |  | 
O=C(O)c1cccc(N(Cc2cnco2)c2ccc(OC(F)F)c(OCC3CC3)c2)c1 [Compound 198] | 60.2 to 61 °C |  | 
CCOc1cc(N(Cc2cnco2)c2cccc(C(=O)O)c2)ccc1OC [Compound 200] | 158 to 159.8 °C |  | 
O=C(O)c1ccc(N(Cc2cncnc2)c2ccc(OC(F)F)c(OC3CCC3)c2)cc1 [Compound 205] | 135.1 to 136.3 °C |  | 
O=C(O)c1ccc(N(Cc2cncnc2)c2ccc(OC(F)F)c(OCc3ccccc3)c2)cc1 [Compound 214] | 157.4 to 158.2 °C |  | 
CCOc1cc(N(Cc2cnc(C)s2)c2ccc(C(=O)O)cc2)ccc1OC(F)F [Compound 225] | 73.1 to 74.1 °C |  | 
COc1ccc(N(Cc2cccnc2)c2cccc(C3NC(=O)NC3=O)c2)cc1OC1CCCC1 (stereo not drawn) [Compound 239] | 99.7 to 105 °C |  | 
COc1ccc(N(Cc2cccnc2)c2ccc(C3NC(=O)NC3=O)cc2)cc1OC1CCCC1 (stereo not drawn) [Compound 245] | 108 to 112.5 °C |  | 
O=C1NC(=O)C(c2cccc(N(Cc3cncs3)c3ccc(OC(F)F)c(OC(F)F)c3)c2)N1 (stereo not drawn) [Compound 257] | 63.1 to 82.3 °C |  | 
CCOc1cc(-c2ncc(CN(c3ccc(C(=O)O)cc3)c3ccc(OC(F)F)c(OCC)c3)o2)ccc1OC(F)F [Compound 273] | 178.4 to 178.9 °C |  | 
CCOc1cc(N(Cc2cccnc2)c2ccc(C(=O)O)cc2)ccc1OC(F)F [Example 11, 4-[(4-Difluoromethoxy-3-ethoxy-phenyl)-pyridin-3-ylmethyl-amino]-benzoic acid] | 177.6 to 178.9 °C |  | 
COc1cc(N(Cc2cccnc2)c2ccc(C(=O)O)cc2)ccc1OC(F)F [Example 14, 4-[(4-Difluoromethoxy-3-methoxy-phenyl)-pyridin-3-ylmethyl-amino]-benzoic acid] | 183.7 to 184.9 °C |  | 
CCOc1cc(N(Cc2cccnc2)c2ccc(C(=O)O)cc2)ccc1OC(F)F [Example 14] |  | 2.54 nM | 
COc1ccc(N(Cc2cccnn2)c2ccc(C(=O)O)cc2)cc1OC1CCCC1 [Example 47] |  | 128 nM | 
O=C(O)c1ccc(N(Cc2cncs2)c2ccc(OC(F)F)c(OC(F)F)c2)cc1 [Example 59] |  | 5.69 nM | 
COc1ccc(N(Cc2cncs2)c2ccc(C(=O)O)cc2)cc1OCC1CC1 [Example 72] |  | 25.1 nM | 
O=C(O)c1ccc(N(Cc2cncnc2)c2ccc(OC(F)F)c(OC(F)F)c2)cc1 [Example 80] |  | 6.17 nM | 
COc1ccc(N(Cc2cncs2)c2ccc(S(C)(=O)=O)cc2)cc1O[C@@H]1CCOC1 [Example 111] |  | 29 nM | 
COc1cc(N(Cc2cncs2)c2cccc(C(=O)O)c2)ccc1OC(F)F [Example 116] |  | 7 nM | 

Compound | melting point | IC50 (hPDE-4D6) | other results
COc1cc(N(Cc2cccnc2)c2ccc(C(=O)O)cc2)ccc1OC(F)F [Example 124] |  | 11.2 nM | 
CCOc1cc(N(Cc2cncs2)c2ccc(C(=O)O)cc2)ccc1OC [Example 130] |  | 8.6 nM | 
COc1ccc(N(Cc2cncs2)c2ccc(C(=O)O)cc2)cc1OC(C)C [Example 131] |  | 17.3 nM | 
O=C(O)Cc1ccc(N(Cc2cncnc2)c2ccc(OC(F)F)c(OC(F)F)c2)cc1 [Example 137] |  | 139 nM | 
COc1ccc(N(Cc2cncs2)c2ccc(C(=O)O)cc2)cc1OC [Example 138] |  | 61 nM | 
O=C(O)Cc1cccc(N(Cc2cncnc2)c2ccc(OC(F)F)c(OC(F)F)c2)c1 [Example 139] |  | 53 nM | 
O=C(O)c1ccc(N(Cc2cnco2)c2ccc(OC(F)F)c(OC(F)F)c2)cc1 [Example 141] |  | 27 nM | 
O=C(O)c1ccc(N(Cc2cnccn2)c2ccc(OC(F)F)c(OC(F)F)c2)cc1 [Example 142] |  | 289 nM | 
CCOc1cc(N(Cc2cncnc2)c2ccc(C(=O)O)cc2)ccc1OC(F)F [Example 143] |  | 7.5 nM | 
O=C(O)c1ccc(N(Cc2cnco2)c2ccc(OC(F)F)c(OC3CCC3)c2)cc1 [Example 182] |  | 3.8 nM | 
COc1ccc(N(Cc2cnco2)c2ccc(C(=O)O)cc2)cc1OC1CC1 [Example 189] |  | 2.3 nM | 
CCOc1cc(N(Cc2cocn2)c2ccc(C(=O)O)cc2)ccc1OC(F)F [Example 190] |  | 20 nM | 
CCOc1cc(N(Cc2cnco2)c2ccc(C(=O)O)cc2)ccc1OC(F)(F)F [Example 217] |  | 12 nM | 
COc1ccc(N(Cc2cncnc2)c2cccc(C(=O)O)c2)cc1OC1CC1 [Example 218] |  | 1.08 nM | 
CCOc1cc(N(Cc2cnc(C)s2)c2ccc(C(=O)O)cc2)ccc1OC(F)F [Example 225] |  | 4.38 nM | 
COc1ccc(N(Cc2cnco2)c2ccc(C(=O)O)cc2)cc1OC(F)(F)F [Example 232] |  | 6.94 nM | 
CCOc1cc(N(Cc2cnns2)c2ccc(C(=O)O)cc2)ccc1OC(F)F [Example 281] |  | 0.16 nM | 
CCOc1cc(Nc2ccc(C(=O)O)cc2)ccc1OC(F)F [Example 294] |  | 34.9 nM | 
O=C(O)c1ccc(Nc2ccc(OC(F)F)c(OC(F)F)c2)cc1 [Example 295] |  | 108 nM | 
C[C@]12N[C@H](Cc3ccccc31)c1ccccc12 [MK-801] |  |  | frequencies of working and reference memory errors (rats [1]): increased the frequencies of both working and reference memory errors; latency for entering the darkened compartment (retention test) (rats [2]): markedly reduced this latency
